Experimental data as given in patent publication US8563542B2 (Cyclacel Limited, priority 2007, dated 2013).

Molecular target: PLK1 (Homo sapiens, UniProt P53350)
Experiment: PLK1 protein kinase assay (CDC25C phosphorylation, [γ-32P]-ATP)
Type: biochemical
Details: Table 2, PLK1 IC50; class symbols; read-out: PLK1 IC50

Sequence of PLK1 (P53350 whole entry): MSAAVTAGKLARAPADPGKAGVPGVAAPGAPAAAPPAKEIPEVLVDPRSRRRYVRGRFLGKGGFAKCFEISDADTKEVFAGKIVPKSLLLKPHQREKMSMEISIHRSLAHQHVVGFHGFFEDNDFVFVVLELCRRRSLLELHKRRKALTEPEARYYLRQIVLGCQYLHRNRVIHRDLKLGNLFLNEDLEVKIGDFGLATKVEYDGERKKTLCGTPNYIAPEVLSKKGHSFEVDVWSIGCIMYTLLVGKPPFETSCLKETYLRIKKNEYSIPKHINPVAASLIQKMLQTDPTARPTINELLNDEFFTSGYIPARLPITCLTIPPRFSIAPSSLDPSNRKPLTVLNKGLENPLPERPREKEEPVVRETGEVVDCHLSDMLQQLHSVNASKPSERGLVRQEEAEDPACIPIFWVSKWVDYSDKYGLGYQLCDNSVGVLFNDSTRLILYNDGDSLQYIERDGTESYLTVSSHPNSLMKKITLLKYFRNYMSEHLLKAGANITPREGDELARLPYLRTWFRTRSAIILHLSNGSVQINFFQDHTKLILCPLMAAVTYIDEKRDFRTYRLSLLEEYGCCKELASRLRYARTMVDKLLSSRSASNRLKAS

IC50	SMILES
< 100 nM	COc1cc(C(=O)NCCO)ccc1Nc1ncc2c(n1)N(C1CCCC1)CC1(CC1)C(=O)N2C [compound 188, 4-(9-Cyclopentyl-5-methyl-6-oxo-6,7,8,9-tetrahydro-5H-spiro[pyrimido[4,5-b][1,4]diazepin-3,1′-cyclopropane]-2-ylamino)-N-(2-hydroxy-ethyl)-3-methoxy-benzamide]
< 100 nM	COc1cc(C(=O)NCCOCCO)ccc1Nc1ncc2c(n1)N(C1CCCC1)CC1(CC1)C(=O)N2C [compound 189, 4-(9-Cyclopentyl-5-methyl-6-oxo-6,7,8,9-tetrahydro-5H-spiro[pyrimido[4,5-b][1,4]diazepin-3,1′-cyclopropane]-2-ylamino)-N-[2-(2-hydroxy-ethoxy)-ethyl]-3-methoxy-benzamide]
< 100 nM	CONC(=O)c1ccc(Nc2ncc3c(n2)N(C2CCCC2)CC2(CC2)C(=O)N3C)c(OC)c1 [compound 190, 4-(9-Cyclopentyl-5-methyl-6-oxo-6,7,8,9-tetrahydro-5H-spiro[pyrimido[4,5-b][1,4]diazepin-3,1′-cyclopropane]-2-ylamino)-3,N-dimethoxy-benzamide]
< 10000 nM	CN1C(=O)CCN(C2CCCC2)c2nc(NC(=O)c3ccccc3)ncc21 [compound 193, N-(9-Cyclopentyl-5-methyl-6-oxo-6,7,8,9-tetrahydro-5H-pyrimido[4,5-b][1,4]diazepin-2-yl)-benzamide]
< 100 nM	COc1cc(C(=O)NCC2CCN(C)CC2)ccc1Nc1ncc2c(n1)N(C1CCCC1)CC(C)(C)C(=O)N2C [compound 196]
< 100 nM	COc1cc(C(=O)NC2CCN(Cc3ccccc3)CC2)ccc1Nc1ncc2c(n1)N(C1CCCC1)CC(C)(C)C(=O)N2C [compound 197, N-(1-Benzyl-piperidin-4-yl)-4-(9-cyclopentyl-5,7,7-trimethyl-6-oxo-6,7,8,9-tetrahydro-5H-pyrimido[4,5-b][1,4]diazepin-2-ylamino)-3-methoxy-benzamide]
< 1000 nM	COCCNC(=O)c1ccc(Nc2ncc3c(n2)N(C2CCCC2)CC(C)(C)C(=O)N3C)c(OC)c1 [compound 198, 4-(9-Cyclopentyl-5,7,7-trimethyl-6-oxo-6,7,8,9-tetrahydro-5H-pyrimido[4,5-b][1,4]diazepin-2-ylamino)-3-methoxy-N-(2-methoxy-ethyl)-benzamide]
< 100 nM	COc1cc(C(=O)NCc2ccncc2)ccc1Nc1ncc2c(n1)N(C1CCCC1)CC(C)(C)C(=O)N2C [compound 199, 4-(9-Cyclopentyl-5,7,7-trimethyl-6-oxo-6,7,8,9-tetrahydro-5H-pyrimido[4,5-b][1,4]diazepin-2-ylamino)-3-methoxy-N-pyridin-4-yl-ylmethyl-benzamide]
< 100 nM	COc1cc(C(=O)NCCc2c[nH]cn2)ccc1Nc1ncc2c(n1)N(C1CCCC1)CC(C)(C)C(=O)N2C [compound 200, 4-(9-Cyclopentyl-5,7,7-trimethyl-6-oxo-6,7,8,9-tetrahydro-5H-pyrimido[4,5-b][1,4]diazepin-2-ylamino)-N-[2-(1H-imidazol-4-yl)-ethyl]-3-methoxy-benzamide]
< 100 nM	COc1cc(C(=O)NCc2ccco2)ccc1Nc1ncc2c(n1)N(C1CCCC1)CC(C)(C)C(=O)N2C [compound 201, 4-(9-Cyclopentyl-5,7,7-trimethyl-6-oxo-6,7,8,9-tetrahydro-5H-pyrimido[4,5-b][1,4]diazepin-2-ylamino)-N-furan-2-ylmethyl-3-methoxy-benzamide]
< 100 nM	COc1cc(C(=O)NCC2CCCCN2C)ccc1Nc1ncc2c(n1)N(C1CCCC1)CCC(=O)N2C (stereo not shown) [compound 202, 4-(9-Cyclopentyl-5-methyl-6-oxo-6,7,8,9-tetrahydro-5H-pyrimido[4,5-b][1,4]diazepin-2-ylamino)-3-methoxy-N-(1-methyl-piperidin-2-ylmethyl)-benzamide]
< 1000 nM	COc1cc(C(=O)NCCN2CCOCC2)ccc1Nc1ncc2c(n1)N(C1CCCC1)CCC(=O)N2C [compound 203, 4-(9-Cyclopentyl-5-methyl-6-oxo-6,7,8,9-tetrahydro-5H-pyrimido[4,5-b][1,4]diazepin-2-ylamino)-3-methoxy-N-(2-morpholin-4-yl-ethyl)-benzamide]
< 100 nM	COc1cc(C(=O)NC2CCCC2)ccc1Nc1ncc2c(n1)N(C1CCCC1)CCC(=O)N2C [compound 204, N-Cyclopentyl-4-(9-cyclopentyl-5-methyl-6-oxo-6,7,8,9-tetrahydro-5H-pyrimido[4,5-b][1,4]diazepin-2-ylamino)-3-methoxy-benzamide]
< 100 nM	COc1cc(C(=O)NCc2cccn2C)ccc1Nc1ncc2c(n1)N(C1CCCC1)CCC(=O)N2C [compound 205, 4-(9-Cyclopentyl-5-methyl-6-oxo-6,7,8,9-tetrahydro-5H-pyrimido[4,5-b][1,4]diazepin-2-ylamino)-3-methoxy-N-(1-methyl-1H-pyrrol-2-ylmethyl)-benzamide]
< 100 nM	COc1cc(C(=O)NC2CCNCC2)ccc1Nc1ncc2c(n1)N(C1CCCC1)CCC(=O)N2C [compound 206, 4-(9-Cyclopentyl-5-methyl-6-oxo-6,7,8,9-tetrahydro-5H-pyrimido[4,5-b][1,4]diazepin-2-ylamino)-3-methoxy-N-piperidin-4-yl-benzamide]
< 10000 nM	COc1cc(C(=O)NC2CCN(C)CC2)ccc1Nc1ncc2c(n1)N(C1CC1)CCC(=O)N2C [compound 207, 4-(9-Cyclopropyl-5-methyl-6-oxo-6,7,8,9-tetrahydro-5H-pyrimido[4,5-b][1,4]diazepin-2-ylamino)-3-methoxy-N-(1-methyl-piperidin-4-yl)-benzamide]
< 1000 nM	COc1cc(C(=O)NC2CCN(C)CC2)ccc1Nc1ncc2c(n1)N(CCO)CCC(=O)N2C [compound 208, 4-[9-(2-Hydroxy-ethyl)-5-methyl-6-oxo-6,7,8,9-tetrahydro-5H-pyrimido[4,5-b][1,4]diazepin-2-ylamino]-3-methoxy-N-(1-methyl-piperidin-4-yl)-benzamide]
< 1000 nM	COc1cc(C(=O)NC2CCN(S(C)(=O)=O)CC2)ccc1Nc1ncc2c(n1)N(C1CCCC1)CCC(=O)N2C [compound 209, 4-(9-Cyclopentyl-5-methyl-6-oxo-6,7,8,9-tetrahydro-5H-pyrimido[4,5-b][1,4]diazepin-2-ylamino)-N-(1-methanesulfonyl-piperidin-4-yl)-3-methoxy-benzamide]
< 1000 nM	COc1cc(C(=O)NC2CCN(C(C)=O)CC2)ccc1Nc1ncc2c(n1)N(C1CCCC1)CCC(=O)N2C [compound 210, N-(1-Acetyl-piperidin-4-yl)-4-(9-cyclopentyl-5-methyl-6-oxo-6,7,8,9-tetrahydro-5H-pyrimido[4,5-b][1,4]diazepin-2-ylamino)-3-methoxy-benzamide]
< 1000 nM	CCOC(=O)CN1CCC(NC(=O)c2ccc(Nc3ncc4c(n3)N(C3CCCC3)CCC(=O)N4C)c(OC)c2)CC1 [compound 211, {4-[4-(9-Cyclopentyl-5-methyl-6-oxo-6,7,8,9-tetrahydro-5H-pyrimido[4,5-b][1,4]diazepin-2-ylamino)-3-methoxy-benzoylamino]-piperidin-1-yl}-acetic acid ethyl ester]
< 1000 nM	COc1cc(C(=O)NC2CCN(C(=O)c3ccccc3)CC2)ccc1Nc1ncc2c(n1)N(C1CCCC1)CCC(=O)N2C [compound 212, N-(1-Benzoyl-piperidin-4-yl)-4-(9-cyclopentyl-5-methyl-6-oxo-6,7,8,9-tetrahydro-5H-pyrimido[4,5-b][1,4]diazepin-2-ylamino)-3-methoxy-benzamide]
< 100 nM	CN1CCC(NC(=O)c2ccc(Nc3ncc4c(n3)N(C3CCCC3)CCC(=O)N4C)c(Cl)c2)CC1 [compound 214, 3-Chloro-4-(9-cyclopentyl-5-methyl-6-oxo-6,7,8,9-tetrahydro-5H-pyrimido[4,5-b][1,4]diazepin-2-ylamino)-N-(1-methyl-piperidin-4-yl)-benzamide]
< 1000 nM	CN1CCC(NC(=O)c2ccc(Nc3ncc4c(n3)N(C3CCCC3)CCC(=O)N4C)c(OC(F)(F)F)c2)CC1 [compound 216, 4-(9-Cyclopentyl-5-methyl-6-oxo-6,7,8,9-tefrahydro-5H-pyrimido[4,5-b][1,4]diazepin-2-ylamino)-N-(1-methyl-piperidin-4-yl)-3-trifluoromethoxy-benzamide]
< 1000 nM	COc1cc(C(=O)NC2CCN(Cc3ccccc3)CC2)ccc1Nc1ncc2c(n1)N(C1CCCC1)CC1(CCC1)C(=O)N2C [compound 217, 4-(9-Cyclopentyl-5-methyl-6-oxo-6,7,8,9-tetrahydro-5H-spiro[pyrimido[4,5-b][1,4]diazepin-3,1′-cyclobutane]-2-ylamino)-3-methoxy-N-(1-benzylpiperidin-4-yl)-benzamide]
< 100 nM	CCN(CC)CCNC(=O)c1ccc(Nc2ncc3c(n2)N(C2CCCC2)CC2(CCC2)C(=O)N3C)c(OC)c1 [compound 219, 4-(9-Cyclopentyl-5-methyl-6-oxo-6,7,8,9-tetrahydro-5H-spiro[pyrimido[4,5-b][1,4]diazepin-3,1′-cyclobutane]-2-ylamino)-N-(2-diethylamino-ethyl)-3-methoxy-benzamide]
< 1000 nM	COc1cc(C(=O)NCc2ccco2)ccc1Nc1ncc2c(n1)N(C1CCCC1)CC1(CCC1)C(=O)N2C [compound 222, 4-(9-Cyclopentyl-5-methyl-6-oxo-6,7,8,9-tetrahydro-5H-spiro[pyrimido[4,5-b][1,4]diazepin-3,1′-cyclobutane]-2-ylamino)-N-furan-2-ylmethyl-3-methoxy-benzamide]
< 10000 nM	COc1cc(C(=O)NC2CCN(C)CC2)ccc1Nc1ncc2c(n1)N(CCC(=O)NCCO)CCC(=O)N2C [compound 223, 4-{9-[2-(2-Hydroxy-ethylcarbamoyl)-ethyl]-5-methyl-6-oxo-6,7,8,9-tetrahydro-5H-pyrimido[4,5-b][1,4]diazepin-2-ylamino}-3-methoxy-N-(1-methyl-piperidin-4-yl)-benzamide]
< 1000 nM	CNC(=O)CCN1CCC(=O)N(C)c2cnc(Nc3ccc(C(=O)NC4CCN(C)CC4)cc3OC)nc21 [compound 224, 3-Methoxy-4-[5-methyl-9-(2-methylcarbamoyl-ethyl)-6-oxo-6,7,8,9-tetrahydro-5H-pyrimido[4,5-b][1,4]diazepin-2-ylamino]-N-(1-methyl-piperidin-4-yl)-benzamide]
